Data set [1] is described as follows: Hydrolysis of oligomers by cutinases (drop plates). In kind it is biochemical. The following applies: expressed in E. coli or Y. lipolytica; 12 hours at 28° C. The source says:
Cutinases from F. solani and A. oryzae were expressed in E. coli BL21 Star with His6 tags using the pET151/D-TOPO vector and the TOPO cloning system (Invitrogen) and purified on His-trap columns. The enzymes were also expressed as secreted extracellular proteins in a Y. lipolytica host strain deficient in the extracellular lipases LIP2, LIP7 & LIP8 (See, Example 7) and the supernatants concentrated 10 fold. Activity was confirmed using p-nitrophenyl butyrate as substrate, commercial lipase as a positive control and the concentrated soluble extract from E. coli transformed with the empty vector as negative control. […] (See, FIG. 26). This is further illustrated by the increase in monomeric acids, especially in the C-6 monomer components (hydroxycaproic acid, adipic acid, caproic acid) and valeric acid, released from the oligomers when cutinases (10 μl supernatant) were incubated with 4% NVR or 4% COP acid (v/v) (1 ml) overnight (See, FIGS. 27A and B).

Data set [2] deals with wild-type Yarrowia lipolytica. The data set is described as follows: Chemo-stat fermentation with cell retention using NVR as carbon and energy source. Conditions: for Flux: steady state, 2% (v/v) NVR, ~215 mL/h, biomass dilution rate ~0.025 h^-1. The source says:
The experimental set-up provided for a NVR Feed, Nutrient Feed and Base Feed (12% (v/v) NH3 (aq.)) that was filter sterilized into the fermenter via peristaltic pumps. Furthermore, a peristaltic pump provided the necessary cross-flow retentate flow rate to the hollow fibre membrane, a peristaltic pump allowed withdrawal of permeate and a peristaltic pump allowed for a biomass bleed from the fermenter.
The chemo-stat's control philosophy entailed manual feed ratio control of the NVR Feed to Nutrient Feed rates, pH control via the Base Feed, temperature control via cooling water supply to the fermenter's jacket, fixed aeration & agitation rates via the respective feedback loops, fixed cross-flow rate via the retentate pump's variable speed drive, manual level control via the permeate pump and manual dilution rate control via the bleed pump.
The initial charge minimal media was prepared (6.7 g/L yeast base without amino acids+(NH4)2SO4, 15 g/L glucose, 75 mg/L citric acid (Mr.=210 g/mol), 5.8 g/L sodium citrate (Mr.=294.1 g/mol), 10.7 g/L K2HPO4 (Mr.=174 g/mol), 5.2 g/L KH2PO4 (M=136.1 g/mol), and 2 mL/L antifoam) and the Nutrient Feed was prepared (6.7 g/L yeast base without amino acids+(NH4)2SO4, 75 mg/L citric acid (Mr.=210 g/mol), 5.8 g/L sodium citrate (Mr.=294.1 g/mol), 10.7 g/L K2HPO4 (Mr.=174 g/mol), 5.2 g/L KH2PO4 (M=136.1 g/mol), and 2 mL/L antifoam). The control parameters for the fermenter were set up (A1 and A2: 1 vvm aeration, pH 7.0, DO calibration at pH 7.0 and 1 vvm to 100% saturation, 28° C., 750 rpm initial agitation until glucose depletion, 1250 rpm final agitation after glucose depletion, manual antifoam).
The fermenter was inoculated with a 10% (v/v) inoculum from a wild-type Yarrowia lipolytica shake flask that was grown overnight from a cryopreserved stock.

The subject of data set [3] is Y. lipolytica strains. Put plainly: Growth of yeasts in the presence of lactones. It counts as cell-based, Yarrowia lipolytica. The following applies: 0.1 to 1 g/L lactone; strains adapted to 3% NVR, especially Iss#137. The source says:
FIG. 18 contains three line graphs showing the growth of selected yeasts in the presence of 0.1-1 g/L lactones (γ-butyrolactone, ε-caprolactone, and δ-valerolactone). Iss#125 is a S. cerevisiae control strain. Iss#134 is a Y. lipolytica strain isolated from plates after slow growth on 3% (v/v) NVR+YPD media. Iss#137 is a Y. lipolytica strain isolated from chemo-stat using synthetic NVR component feed.
A cell retention chemo-stat was required to avoid cell wash-out. […] HPLC analysis confirmed that NVR contains a high concentration (ca. 92 g/L) of valerolactone.

The nature of data set [4]: Lactone hydrolase activity assay (LC/MS). In kind it is biochemical. The following applies: 4% v/v substrate, pH 7.0, 60 minutes. The source says:
(§1) The lactone hydrolase from Acinobacter was expressed (See, FIG. 3) as a secreted protein in Y. lipolytica with all major extracellular lipases deleted (strain JMY1212, Δlip-2,7,8,11). The secreted hydrolase was concentrated 10 fold by centrifugal filtration of the supernatant (Amicon® Ultra Ultracel® 10K). This enzyme, as well as the lactone hydrolyzing enzymes from Brevibacterium epidermidis and Euglena gracilis were also expressed in E. coli BL21 Star™ (DE3) cells as His tagged proteins using the pET151 inducible expression vector, and the enzymes were purified using HisTrap™ FF columns (GE Healthcare), and concentrated as before by centrifugal filtration to 1 ml after elution from the columns. Activity assays were performed in phosphate buffer (50 mM, pH 7.0) and ZnCl2 (75 mM) containing the substrate (valerolactone, caprolactone, NVR, or COP acid) (4% v/v). Reactions were started by adding 50 μl concentrated enzyme and incubated with shaking for 60 minutes. Reactions were terminated by the addition of 500 μl acetonitrile and analyzed by LC/MS. The buffer control contained 5% glycerol in place of enzyme. To assess hydrolysis of oligomers in COP acid, 10 μl enzyme was added to agar plates (1.5% (w/v)) containing 4% (v/v) COP acid. All experiments were performed in triplicate. […]

The nature of data set [5]: Lactone hydrolases incubated with NVR (LC/MS). It counts as biochemical. Conditions: 4% v/v NVR, pH 7.0, 60 minutes.
Source text: as §1

A short description of data set [6]: Agar plate clearance zone assay on NVR. It counts as biochemical. Conditions: lipases; 1% (v/v) NVR, pH = 7; 1 U/well, 24 hours. The text has this:
(§2) Screening methods for hydrolysis of oligomeric esters in NVR and COP acid with commercially available lipases and esterases were verified using commercially available caprolactonediol (CPL) polymers with a range of molecular weights. Two screening methods were used to identify candidate enzymes, including an agar plate assay where radial enzyme diffusion produces clearance zones if the oligomer in the agar is hydrolyzed, and a biotransformation assay in which the hydrolysis of the polymer to monomers was assayed by HPLC with UV detection or LC-MS to quantify the concentrations of monomers. […]
(§3) For plate assays, agar plates (1.5% agarose) containing 1-4% polycaprolactone (PCL), NVR or COP acid (v/v) were prepared with 50 mM citrate, Tris/HCl, or phosphate buffers to assay enzymes for hydrolytic activity at pH 3.5, 5, 7, or 8. […] Clearance zones were measured after 24 hours. […] FIG. 5 is a bar graph comparing the relative activity of esterases at different pHs as measured by the diameter of the clearance zone in the plate assay.

Data set [7] is described as follows: Agar plate clearance zone assay on COP acid. The following applies: lipases; 4% (v/v) COP acid, pH = 7; 1 U/well, 24 hours. In kind it is biochemical.
Source text: as §2, §3

A short description of data set [8]: Plate assays, results summarised in words. Conditions: synthetic PCL diol, NVR and/or COP acid oligomers as named in the sentence; pH 5-8. It counts as biochemical. Here is the method: For plate assays, agar plates (1.5% agarose) containing 1-4% polycaprolactone (PCL), NVR or COP acid (v/v) were prepared with 50 mM citrate, Tris/HCl, or phosphate buffers to assay enzymes for hydrolytic activity at pH 3.5, 5, 7, or 8. The molecular weight of PCL is 530 g/mol. Wells with a ca. 3 mm diameter were made in the plates, and enzyme added (1 U/well). Clearance zones were measured after 24 hours. Tables 3 and 4 show the results of the agar plate assay with commercial esterases and lipases, respectively, for hydrolysis of oligomers in NVR, COP acid and caprolactone polymers. […] FIG. 5 is a bar graph comparing the relative activity of esterases at different pHs as measured by the diameter of the clearance zone in the plate assay.
See, Table 3, 4 and FIG. 4.

With “AoC: Aspergillus oryzae cutinase (EMBL D38311.1, UniProt P52956)”, in data set [1], the “hydrolysis of oligomers in NVR and COP acid (clearance zones)” value is “able to hydrolyze oligomers in NVR and COP acid”.
With `O=C(O)CCCCO` [5-hydroxyvaleric acid], in data set [2], the Flux is 32 % of valerate uptake.
Turning to `O=C(O)CCCC(=O)O` [glutaric acid], the Flux in data set [2] was 12 % of valerate uptake.
Take `O=C1CCCCO1` [δ-valerolactone]: in data set [3], the “effect of lactone on growth of Y. lipolytica strains” value is “inhibitory”.
Take `O=C(O)CCCCCO` [6-hydroxycaproic acid]: in data set [2], the Flux is recorded as 18 % of valerate uptake.
Regarding `O=C(O)CCCCC(=O)O` [adipic acid], the “steady state flux of catabolism relative to the catabolism of valeric acid” value in data set [2] (not told) is on record as 18%.
In the case of `O=C1CCCO1` [γ-butyrolactone], the Flux in data set [2] is recorded as 0 % of valerate uptake.
For `CCCCCC(=O)O` [caproic acid], the “steady state flux of catabolism relative to the catabolism of valeric acid” value in data set [2] (Table 6) is listed as 42%. In data set [2], the Flux is 42 % of valerate uptake.
Taken in the same sequence, the figures for `CCCC(=O)O` [butyric acid] were 7% and 7 % of valerate uptake.

B1: ChnC from Acinobacter: Lactone hydrolase, GenBank AAG10029.1, SEQ ID NO:1 (protein)
chain: MNSTQSNTQFLFDLYANWSRRMQENPNMTIEDFRSMFDEWHQPTLEPEEVSYKFDVVAGVEGLWIYPKDADLSKVIIYTHGGGFAVGSSASHRKLVGHLAKYLGVSAFVVDYRRSPEHVFPAQIQDVTAVYKELLQRGFTAKNMLTAGDSAGGNLAISTVLNLRNEGIELPGAVIAFSPWLDMEHKGETLISNDATDALITVDLLKGMSQMFLGEHGDPANPLANPLKANYQVFPRLYINAGSVESLVDNATRLADIAKKEGVDVTLSVVDNMQHVFPFLAGRASEADQELAKIAQWFKA
modifications: Acinetobacter sp. SE19
In the case of B1, the lactone hydrolyzing activity entry in data set [4] is “highest activity”. Also, the “hydrolysis of valerolactone in NVR” value in data set [5] is “hydrolyzed valerolactone”.

B2: ChnC from Brevibacterium: Lactonohydrolase, GenBank AAK73167.2, SEQ ID NO:2 (protein, listed as Brevibacterium epidermidis)
chain: MPTSPPTVSATPMTWSSRRTGRPTSASSASTSWAGPITSSPMSSRQHRRHLGVVASGLSFPNGMVITPDGKTLIVNELFGNKITAFDIGADGKLANKRDFANFGEIGDEPDVAKRIEAATIVPDGLALDAEGAVWIANTVNQNATRIAEGGQILDTVDTAPEGIFAVALGGDDGKTLFLCAAPDWDEGARSKAREGRMLATTVAVPHAGRP
As for B2, the “hydrolysis of valerolactone in NVR” value in data set [5] was “hydrolyzed valerolactone”.

B3: L7: Commercial lipase from Rhizomucor miehei (protein, UniProt P19515 95-363, looked up)
Lipase: SIDGGIRAATSQEINELTYYTTLSANSYCRTVIPGATWDCIHCDATEDLKIIKTWSTLIYDTNAMVARGDSEKTIYIVFRGSSSIRNWIADLTFVPVSYPPVSGTKVHKGFLDSYGEVQNELVATVLDQFKQYPSYKVAVTGHSLGGATALLCALDLYQREEGLSSSNLFLYTQGQPRVGDPAFANYVVSTGIPYRRTVNERDIVPHLPPAAFGFLHAGEEYWITDNSPETVQVCTSDLETSDCSNSIVPFTSVLDHLSYFGINTGLCT
As to B3, the “Substrate Clearance Zone Diameter” value in data set [6] is 1.7; in data set [7] it was 2.2. Besides, in data set [8], the “hydrolytic activity in plate assays (in words)” value is “large clearance zones”.
